Each structure is given as a SMILES string. Read-outs that look alike come from different tables or passages of the source.

In the test the test system is HRE/Luc/HEK293 cells. The test can be described thus: HRE (Hypoxia Response Element) luciferase assay. The settings on record: for fold induction at 10 µM / fold induction at 100 µM: Homo sapiens; for HRE expression: low concentration of 1 µM. Type of test: cell-based, human. On the procedure:
• (a) HRE assay: Confirmation of increased in HRE expression levels by the test substance relative to the vehicle in HRE/Luc/HEK293 cells • * Less than a twofold increase at 100 µM, • ** More than a twofold increase at 100 µM, • *** More than a twofold increase at 10 µM, • **** More than a twofold increase at 1 µM, • Not performed.
It has been reported that in the brains of AD patients, blood supply is mostly insufficient, resulting in oxygen levels being up to 50% lower than those of normal individuals, leading to increased oxidative stress (ROS) and neuroinflammation. It has also been studied that when the HIF-1α (hypoxia inducible factor-1) factor binds to the HRE (hypoxia response element), it increases VEGF (vascular endothelial growth factor), which promotes the formation of new blood vessels, thereby increasing oxygen levels in the brain and helping to inhibit nerve cell damage.
A reporter gene containing luciferase, capable of verifying the level of HRE expression, was inserted into HEK-293 human embryonic kidney cells, and HRE/Luc/HEK293 cells were constructed by inserting a plasmid (HRE/Luc) with luciferase attached downstream of the HRE promoter that binds to HIF-1α using lipofectamine (Invitrogen).
To perform HRE luciferase analysis, HRE/Luc/HEK293 cells were seeded in 96-well culture plates at a cell density of 4 x 10^4 per well in minimal essential medium (MEM) containing 10% fetal bovine serum. After one day, the cell medium was removed and replaced with medium mixed with various concentrations of example compounds. Six hours after compound pretreatment, HRE/Luc/HEK293 cells were cultured under hypoxic conditions (O2 0.1%) for 18 hours. Subsequently, the cells were washed with phosphate buffer, lysed with lysis buffer, and then the luciferase reagent (Promega) for luciferase analysis was added. Afterward, changes in HRE expression levels associated with HIF-1 signaling were evaluated by measuring luminescence using an Infinite200 (Tecan).

Where [1] appears, read: HEK293, fold increase of HRE expression, hypoxic conditions (O2 0.1%) 18 hours, Table 2, read-out: HRE-increasing 10uM.
Where [2] appears, read: HEK293, fold increase of HRE expression, hypoxic conditions (O2 0.1%) 18 hours, Table 2, read-out: HRE-increasing 100uM.
Setting [3] is: HEK293, 18 h, Table 2 (Examples 75-109, 114), read-out: HRE-inceasing 10uM.
Where [4] appears, read: HEK293, 18 h, Table 2 (Examples 75-109, 114), read-out: HRE-inceasing 100uM.
Where [5] appears, read: HEK293, 18 h, Table 2 (Examples 37-74, 52), read-out: HKt-increasing 10uM.
[6] abbreviates: HEK293, 18 h, Table 2 (Examples 37-74, 52), read-out: HKt-increasing 100uM.

Consider `COc1ccc(Cc2ccc(S[C@H]3OC[C@H](O)[C@H](O)[C@H]3O)cc2)cc1` [Example 29, (2R,3R,4S,5S)-2-((4-(4-methoxybenzyl)phenyl)thio) tetrahydro-2H-pyran-3,4,5-thiol], for which, under setting [1], the fold induction at 10 µM turned out to be 2.7. Under setting [2], the fold induction at 100 µM was determined as 2.6.

For the molecule `COc1ccc(Cc2ccc(O[C@H]3OC[C@H](O)[C@H](O)[C@H]3N=[N+]=[N-])cc2)cc1` [Example 77, (3S,4R,5R,6R)-5-azido-6-(4-(4-methoxybenzyl)phenoxy)tetrahydro-2H-pyran-3,4-diol], under setting [3], the fold induction at 10 µM is 1. In addition, the fold induction at 100 µM under setting [4] turned out to be 1.3.

Turning to `CC(C)c1ccc(Oc2ccc(O[C@H]3OC[C@@H](O)[C@H](O)[C@H]3O)c(Cl)c2)cc1` [Example 67, (2R,3R,4S,5R)-2-(2-chloro-4-(4-isopropylphenoxy)henoxy)tetrahydro-2H-pyran-3,4,5-triol], the HRE expression result is on record as “more than threefold”. Besides, under setting [5], the fold induction at 10 µM was 3.5. The fold induction at 100 µM under setting [6] was 2.6.

As for `O[C@@H]1[C@@H](O)[C@@H](Oc2ccc(Cc3ccc(OC4CCCC4)cc3)cc2)OC[C@@H]1O` [Example 45, (2R,3R,4S,5S)-2-(4-(4-(cyclopentyloxy)benzyl)phenoxy)tetrahydro-2H-pyran-3,4,5-triol], under setting [5], the fold induction at 10 µM was 1.1. In addition, the fold induction at 100 µM under setting [6] turned out to be 1.3.

Consider `CC(C)c1ccc(Oc2cccc(O[C@H]3OC[C@H](O)[C@H](O)[C@H]3O)c2)cc1` [Example 54, (2R,3R,4S,5S)-2-(3-(4-isopropylphenoxy)phenoxy)tetrahydro-2H-pyran-3,4,5-triol], for which the fold induction at 10 µM under setting [5] was found to be 1. Moreover, the fold induction at 100 µM under setting [6] is 1.5.

On to `COc1ccc(Cc2ccc(O[C@H]3OC[C@H](O)[C@H](O)[C@H]3O)c(F)c2)cc1` [Example 46, (2R,3R,4S,5S)-2-(2-fluoro-4-(4-methoxybenzyl)phenoxy)tetrahydro-2H-pyran-3,4,5-triol], for which the fold induction at 10 µM under setting [5] was 1.1. Further, the fold induction at 100 µM under setting [6] worked out at 1.8.

With `CC(C)c1ccc(Oc2ccc(O[C@H]3OC[C@H](O)[C@H](O)[C@H]3O)c(F)c2)cc1` [Example 68, (2R,3R,4S,5S)-2-(2-fluoro-4-(4-isopropylphenoxy)phenoxy)tetrahydro-2H-pyran-3,4,5-triol], the HRE expression entry is “more than threefold”. For the same molecule, the fold induction at 10 µM under setting [5] amounted to 4.3. For the same molecule, the fold induction at 100 µM under setting [6] was found to be 4.4.

Regarding `O[C@@H]1[C@@H](O)[C@@H](Oc2ccc(Cc3ccc4ccccc4c3)cc2)OC[C@@H]1O` [Example 19, (2R,3R,4S,5S)-2-(4-(naphthalen-2-ylmethyl)phenoxy) tetrahydro-2H-pyran-3,4,5-triol], the fold induction at 10 µM under setting [1] is 1.3. Besides, under setting [2], the fold induction at 100 µM was 1.8.

With `COc1ccc2c(ccn2-c2ccc(O[C@@H]3OC[C@H](O)[C@H](O)[C@H]3O)cc2)c1` [Example 83, (2S,3R,4S,5S)-2-(4-(5-methoxy-1H-indol-1-yl)phenoxy)tetrahydro-2H-pyran-3,4,5-triol], the fold induction at 10 µM under setting [3] is 2.2. Moreover, the fold induction at 100 µM under setting [4] came out at 3.3.

`Cc1ccc2oc(-c3ccc(O[C@@H]4OC[C@H](O)[C@H](O)[C@H]4O)c(Cl)c3)nc2c1` [Example 100, (2S,3R,4S,5S)-2-(2-chloro-4-(5-methylbenzo[d]oxazol-2-yl)phenoxy) tetrahydro-2H-pyran-3,4,5-triol]: the fold induction at 10 µM under setting [3] was determined as 2.7. Also, the fold induction at 100 µM under setting [4] amounted to 2.4.

Turning to `CC(C)[C@H]1CC[C@H](Cc2ccc(O[C@H]3OC[C@H](O)[C@H](O)[C@H]3O)cc2)CC1` [Example 74, (2R,3R,4S,5S)-2-(4-(((1R,4R)-4-isopropylcyclohexyl)methyl)phenoxy)tetrahydro-2H-pyran-3,4,5-triol], the fold induction at 10 µM under setting [5] is 1.9. The fold induction at 100 µM under setting [6] was 3.

Regarding `CC(C)c1ccc(-c2ccc(Cc3ccc(O[C@H]4OC[C@H](O)[C@H](O)[C@H]4O)cc3)cc2)cc1` [Example 52, (2R,3R,4S,5S)-2-(4-((4'-isopropyl-[1,1'-biphenyl]-4-yl)methyl)phenoxy)tetrahydro-2H-pyran-3,4,5-triol], the fold induction at 10 µM under setting [5] was determined as 2. Also, under setting [6], the fold induction at 100 µM worked out at 3.6.

As for `CC(C)c1ccc(Oc2ccc(O[C@H]3OC[C@H](O)[C@H](O)[C@H]3O)c(Cl)c2)cc1` [Example 57, (2R,3R,4S,5S)-2-(2-chloro-4-(4-isopropylphenoxy)phenoxy)tetrahydro-2H-pyran-3,4,5-triol], the HRE expression result is “more than threefold”. For the same molecule, the fold induction at 10 µM under setting [5] stood at 3.2. For the same molecule, the fold induction at 100 µM under setting [6] came out at 2.8.

For the molecule `CC(C)c1ccc2nc(-c3ccc(O[C@H]4OC[C@H](O)[C@H](O)[C@H]4O)cc3)oc2c1` [Example 88, (2R,3R,4S,5S)-2-(4-(6-isopropylbenzo[d]oxazol-2-yl)phenoxy)tetrahydro-2H-pyran-3,4,5-triol], the fold induction at 10 µM under setting [3] worked out at 1.7. For the same molecule, the fold induction at 100 µM under setting [4] stood at 3.1.

As to `O=C(c1ccc(O[C@H]2OC[C@H](O)[C@H](O)[C@H]2O)cc1)c1ccco1` [Example 115, furan-2-yl(4-(((2R,3R,4S,5S)-3,4,5-trihydroxytetrahydro-2H-pyran-2-yl)oxy)phenyl)methanone], the fold induction at 10 µM under setting [1] is 1. The fold induction at 100 µM under setting [2] amounted to 1.4.

For `COc1ccc2oc(-c3ccc(O[C@@H]4OC[C@H](O)[C@H](O)[C@H]4O)cc3)nc2c1` [Example 92, (2S,3R,4S,5S)-2-(4-(5-methoxybenzo[d]oxazol-2-yl)phenoxy)tetrahydro-2H-pyran-3,4,5-triol], the HRE expression result is reported as “more than threefold”. For the same molecule, under setting [3], the fold induction at 10 µM is 3. In addition, the fold induction at 100 µM under setting [4] amounted to 1.6.

Regarding `CCc1ccc2c(-c3ccc(O[C@H]4OC[C@H](O)[C@H](O)[C@H]4O)cc3)coc2c1` [Example 95, (2R,3R,4S,5S)-2-(4-(6-ethylbenzofuran-3-yl)phenoxy) tetrahydro-2H-pyra-3,4,5-triol], the fold induction at 10 µM under setting [3] was 2.6. Besides, the fold induction at 100 µM under setting [4] was 3.1.

Consider `COc1ccc(Cc2ccc(O[C@H]3OC[C@H](O)[C@H](O)[C@H]3O)c(Cl)c2)cc1` [Example 51, (2R,3R,4S,5S)-2-(2-chloro-4-(4-methoxybenzyl)phenoxy)tetrahydro-2H-pyran-3,4,5-triol], for which the fold induction at 10 µM under setting [5] worked out at 1.3. In addition, the fold induction at 100 µM under setting [6] came out at 2.9.

`O[C@@H]1[C@@H](O)[C@@H](O)CO[C@@H]1Sc1ccc(Cc2ccccc2)cc1` [Example 26, (2R,3R,4S,5S)-2-((4-benzylphenyl)thio)tetrahydro-2H-pyran-3,4,5-thiol]: the fold induction at 10 µM under setting [1] is 2.1. In addition, the fold induction at 100 µM under setting [2] was 2.5.

Turning to `COc1ccc(Cc2ccc(O[C@H]3OC[C@H](O)[C@H](O)[C@H]3O)cc2)cc1OC` [Example 17, (2R,3R,4S,5S)-2-(4-(3,4-dimethoxybenzyl)phenoxy)tetrahydro-2H-pyran-3,4-triol], the fold induction at 10 µM under setting [1] was determined as 1.2. The fold induction at 100 µM under setting [2] was found to be 1.5.

For the molecule `CO[C@@H]1[C@@H](O)[C@@H](Oc2ccc(Oc3ccc(C(C)C)cc3)cc2)OC[C@@H]1O` [Example 60, (2R,3R,4S,5S)-2-(4-(4-isopropylphenoxy)phenoxy)-4-methoxytetrahydro-2H-pyran-3,5-diol], the fold induction at 10 µM under setting [5] was determined as 2.3. Besides, the fold induction at 100 µM under setting [6] was 1.6.

`CC(C)c1ccc(Oc2ccc(O[C@H]3O[C@H](CO)[C@H](O)[C@H](O)[C@H]3O)cc2)cc1` [Example 59, (2R,3R,4S,5R,6R)-2-(hydroxymethyl)-6-(4-(4-isopropylphenoxy)phenoxy)tetrahydro-2H-pyran-3,4,5-triol]: the fold induction at 10 µM under setting [5] turned out to be 1.8. Besides, the fold induction at 100 µM under setting [6] is 2.8.

As to `CO[C@H]1CO[C@H](Oc2ccc(Oc3ccc(C(C)C)cc3)cc2)[C@H](O)[C@H]1O` [Example 61, (2R,3R,4R,5S)-2-(4-(4-isopropylphenoxy)phenoxy)-5-methoxytetrahydro-2H-pyran-3,4-diol], under setting [5], the fold induction at 10 µM is 1.1. Moreover, the fold induction at 100 µM under setting [6] was 1.3.

Consider `Cc1ccc2oc(-c3ccc(O[C@H]4OC[C@H](O)[C@H](O)[C@H]4O)c(Cl)c3)nc2c1` [Example 99, (2R,3R,4S,5S)-2-(2-chloro-4-(5-methylbenzo [d]oxazol-2-yl)phenoxy)tetrahydro-2H-pyran-3,4,5-triol], for which the fold induction at 10 µM under setting [3] came out at 2.8. Moreover, the fold induction at 100 µM under setting [4] stood at 3.6.

These data come from patent EP4810508A1, “ARABINOSE DERIVATIVE COMPOUND, AND COMPOSITION COMPRISING SAME FOR PREVENTING OR TREATING DEGENERATIVE BRAIN DISEASES” (Digmbio. Inc., priority 2023, dated 2025).
